Values quoted from earlier work in patent publication US20120252675A1, “HERBICIDE […] A […] E[…] A POLYA[…] THE ALKYL GROUP IS BRANCHED” (priority 2009, published 2012).

Details: room temperature

For O=C(O)CNCP(=O)(O)O [glyphosate], the solubility in water is listed as “about 1.5 % by weight”.
